The values below come from ChEMBL document CHEMBL2086308, “Cytotoxic 2-phenyacrylnitriles, the importance of the cyanide moiety and discovery of potent broad spectrum cytotoxic agents” (2012).

Common to all, as to type: functional
The test system of one assay is MCF7. Put plainly: Growth inhibition of human MCF7 cells assessed as reduction in cell growth at 25uM after 72 hrs by MTT assay. The conditions noted are these: MCF7, 72 h, read-out: GI.
Another assay concerns NCI-H460. Put plainly: Growth inhibition of human H460 cells assessed as reduction in cell growth at 25uM after 72 hrs by MTT assay. To be noted: NCI-H460, 72 h, read-out: GI.
In the next assay the test system is MIA PaCa-2. Put plainly: Growth inhibition of human MIAPaCa2 cells assessed as reduction in cell growth at 25uM after 72 hrs by MTT assay. The conditions noted are these: MIA PaCa-2, 72 h, read-out: GI. In general terms: Formazan colour is commonly taken as a measure of viable cells.
The test system of another assay is SW480. The experiment in a line: Growth inhibition of human SW480 cells assessed as reduction in cell growth at 25uM after 72 hrs by MTT assay. To be noted: SW480, 72 h, read-out: GI.
The test system of the next assay is A2780. Put plainly: Growth inhibition of human A2780 cells assessed as reduction in cell growth at 25uM after 72 hrs by MTT assay. The conditions noted are these: A2780, 72 h, read-out: GI.
Assay [1] is described as follows: Growth inhibition of mouse SMA cells assessed as reduction in cell growth at 25uM after 72 hrs by MTT assay. To be noted: read-out: GI.
In another assay the test system is A-431. Put plainly: Growth inhibition of human A431 cells assessed as reduction in cell growth at 25uM after 72 hrs by MTT assay. The conditions noted are these: A-431, 72 h, read-out: GI.
The subject of a further assay is HT-29. Put plainly: Growth inhibition of human HT-29 cells assessed as reduction in cell growth at 25uM after 72 hrs by MTT assay. The conditions noted are these: HT-29, 72 h, read-out: GI.
Assay [2] is described as follows: Growth inhibition of human SJ-G2 cells assessed as reduction in cell growth at 25uM after 72 hrs by MTT assay. To be noted: SJ-G2, 72 h, read-out: GI.
A short description of assay [3]: Growth inhibition of human BE(2)-C cells assessed as reduction in cell growth at 25uM after 72 hrs by MTT assay. The conditions noted are these: read-out: GI.
In another assay the test system is DU-145. The experiment in a line: Growth inhibition of human DU145 cells assessed as reduction in cell growth at 25uM after 72 hrs by MTT assay. The conditions noted are these: DU-145, 72 h, read-out: GI.

Turning to `Cc1ccc(/C=C(\C#N)c2ccc(Cl)c(Cl)c2)o1`, the inhibition of growth at 25 µM turned out to be 68% in the assay with MCF7; 40% in the assay on NCI-H460; 36% in the assay with MIA PaCa-2; 47% in the assay on SW480; 43% in the assay on A2780; 33% in [1]. Besides, the inhibition of growth at 25 µM in the assay on A-431 is 46%; in the assay on HT-29 it was 58%; in [2] it was 32%; in assay [3], 50%; in the assay on DU-145, less than 10%.

Take `COc1ccc(/C=C(\C(=O)O)c2ccc(Cl)c(Cl)c2)cc1`: the inhibition of growth at 25 µM (with MCF7; in the assay with NCI-H460; in the assay on MIA PaCa-2; in the assay with SW480; in the assay with A2780; in assay [1]) was less than 10% in each case. Also, the inhibition of growth at 25 µM was less than 10% in the assay on A-431; 11% with HT-29; less than 10% in assay [2]; less than 10% in assay [3]; less than 10% with DU-145.

Regarding `N#C/C(=C\c1cc2ccccc2o1)c1ccc(Cl)c(Cl)c1`, the inhibition of growth at 25 µM in the assay with MCF7 was 40%; in the assay on NCI-H460 it was 36%; with MIA PaCa-2, 47%; in the assay with SW480, 43%; with A2780, 49%; in assay [1], 55%. Further, the inhibition of growth at 25 µM in the assay on A-431 is 54%; in the assay with HT-29, 43%; in assay [2] it was 46%; in assay [3] it was 20%; in the assay on DU-145 it was 14%.
